Source: patent US8791107B2, “N-substituted oxazinopteridines and oxazinopteridinones” (Takeda Pharmaceutical Company Limited, priority 2011, dated 2014)

target: T1, PI3Kδ (Homo sapiens, UniProt O00329); assay: PI3Kδ inhibition, modified PIK3CD Adapta TR-FRET assay; type: biochemical; settings: recombinant GST-tagged full length PIK3CD co-expressed with PIK3R1 (p85α); 2 μM ATP, 50 μM PIP2
T1 construct: The protein is full length and co-expressed with untagged PIK3R1; GST; purchased Invitrogen PV5274
Outline: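 Full-length GST-PIK3CD co-expressed with p85α was run in 50 mM HEPES pH 7.5, 3 mM MgCl2, 1 mM EGTA, 100 mM NaCl, 0.03% CHAPS, 2 mM DTT, 1% DMSO, with 12-point compound titrations. Reactions at room temperature were started with solution containing 2 μM ATP and 50 μM PIP2. ADP was detected by Adapta TR-FRET (620 nm-ratioed).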

T1 sequence (O00329 whole entry): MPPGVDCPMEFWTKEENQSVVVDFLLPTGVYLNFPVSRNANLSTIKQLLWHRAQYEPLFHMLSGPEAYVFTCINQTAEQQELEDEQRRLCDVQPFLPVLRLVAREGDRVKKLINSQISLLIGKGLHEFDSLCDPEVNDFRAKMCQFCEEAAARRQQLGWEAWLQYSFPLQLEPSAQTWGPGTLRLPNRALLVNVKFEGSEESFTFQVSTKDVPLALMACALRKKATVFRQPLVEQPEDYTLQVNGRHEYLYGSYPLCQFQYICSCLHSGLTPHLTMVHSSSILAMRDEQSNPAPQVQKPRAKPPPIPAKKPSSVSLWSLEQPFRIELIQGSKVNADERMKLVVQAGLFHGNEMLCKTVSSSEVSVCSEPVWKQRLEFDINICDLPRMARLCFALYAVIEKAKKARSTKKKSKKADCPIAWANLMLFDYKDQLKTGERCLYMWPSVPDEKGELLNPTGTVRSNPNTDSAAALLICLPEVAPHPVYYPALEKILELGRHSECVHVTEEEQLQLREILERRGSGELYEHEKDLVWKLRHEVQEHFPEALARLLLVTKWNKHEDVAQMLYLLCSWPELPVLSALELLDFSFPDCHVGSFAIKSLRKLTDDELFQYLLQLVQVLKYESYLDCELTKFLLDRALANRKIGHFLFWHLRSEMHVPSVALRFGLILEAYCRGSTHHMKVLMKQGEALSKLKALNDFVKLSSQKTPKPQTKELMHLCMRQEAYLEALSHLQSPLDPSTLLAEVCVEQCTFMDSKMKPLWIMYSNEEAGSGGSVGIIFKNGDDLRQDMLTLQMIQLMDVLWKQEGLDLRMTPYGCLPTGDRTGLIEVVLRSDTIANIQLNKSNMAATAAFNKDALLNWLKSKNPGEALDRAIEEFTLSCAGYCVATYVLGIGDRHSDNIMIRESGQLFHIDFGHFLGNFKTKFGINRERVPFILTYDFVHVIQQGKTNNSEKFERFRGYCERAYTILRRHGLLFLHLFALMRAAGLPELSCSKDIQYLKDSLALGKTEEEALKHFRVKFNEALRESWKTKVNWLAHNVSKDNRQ
T1 sequence (P27986 whole entry partner): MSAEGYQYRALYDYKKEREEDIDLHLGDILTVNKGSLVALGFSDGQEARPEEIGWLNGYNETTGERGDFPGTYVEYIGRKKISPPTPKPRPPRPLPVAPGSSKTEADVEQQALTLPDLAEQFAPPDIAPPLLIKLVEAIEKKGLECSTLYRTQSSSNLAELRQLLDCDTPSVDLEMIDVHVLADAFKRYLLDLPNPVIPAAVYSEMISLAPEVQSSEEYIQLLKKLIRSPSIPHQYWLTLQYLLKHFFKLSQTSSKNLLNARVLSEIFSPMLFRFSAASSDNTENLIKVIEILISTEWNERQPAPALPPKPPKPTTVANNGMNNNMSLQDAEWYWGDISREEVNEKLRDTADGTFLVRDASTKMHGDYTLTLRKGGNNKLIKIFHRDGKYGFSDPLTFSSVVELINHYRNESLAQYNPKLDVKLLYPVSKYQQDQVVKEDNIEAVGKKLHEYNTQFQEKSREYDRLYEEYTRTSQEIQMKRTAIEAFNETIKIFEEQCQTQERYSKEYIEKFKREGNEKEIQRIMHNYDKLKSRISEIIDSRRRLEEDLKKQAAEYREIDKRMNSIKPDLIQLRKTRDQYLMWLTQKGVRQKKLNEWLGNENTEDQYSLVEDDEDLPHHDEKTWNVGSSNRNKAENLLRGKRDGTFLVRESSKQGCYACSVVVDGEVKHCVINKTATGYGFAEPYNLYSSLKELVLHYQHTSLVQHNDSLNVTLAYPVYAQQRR

| PI3Kδ Inhibition (pIC50) | SMILES |
| --- | --- |
| 8.1 | CNC(=O)Nc1ccc(-c2ncc3c(n2)N2CCOC[C@H]2C(=O)N3[C@@H](C)c2ccc(C)cc2)cc1 (single isomer, unassigned) [Example 86] |

same assay, conditions: recombinant GST-tagged full length PIK3CD co-expressed with PIK3R1 (p85α); 2 μM ATP, 50 μM PIP2; read-out: PI3Kδ Inhibition (pIC50) (converted)

| IC50 [nM] | SMILES |
| --- | --- |
| 50.1 | CCc1nnc(CN2C[C@@H]3COCCN3c3nc(-c4cc(CO)ccc4F)ncc32)o1 [Example 179, (R)-(3-(5-((5-ethyl-1,3,4-oxadiazol-2-yl)methyl)-5,6,6a,7,9,10-hexahydro-[1,4]oxazino[3,4-h]pteridin-2-yl)-4-fluorophenyl)methanol] |
| 501 | CS(=O)(=O)c1ccc(CN2C(=O)C3COCCN3c3nc(-c4cccc(-n5cccn5)c4)ncc32)cc1 (centres unmarked) [Example 128, 2-(3-(1H-pyrazol-1-yl)phenyl)-5-(4-(methylsulfonyl)benzyl)-6a,7,9,10-tetrahydro-[1,4]oxazino[3,4-h]pteridin-6(5H)-one] |
| 158 | Cc1ccc(C(N)=O)c(CN2CC3COCCN3c3nc(-c4cccc5[nH]ccc45)ncc32)c1 (centres unmarked) [Example 228, 2-((2-(1H-indol-4-yl)-6a,7,9,10-tetrahydro-[1,4]oxazino[3,4-h]pteridin-5(6H)-yl)methyl)-4-methylbenzamide] |
| 1260 | N#Cc1cccc(-c2ncc3c(n2)N2CCOC[C@H]2CN3CC(=O)NCC2CCOCC2)c1 [Example 218, (R)-2-(2-(3-cyanophenyl)-6a,7,9,10-tetrahydro-[1,4]oxazino[3,4-h]pteridin-5(6H)-yl)-N-((tetrahydro-2H-pyran-4-yl)methyl)acetamide] |
| > 10000 | CC(C)(C)C(N)CCN1C[C@@H]2COCCN2c2nc(-c3cccc4[nH]ccc34)ncc21 (stereo partly drawn) [Example 210, 1-((R)-2-(1H-indol-4-yl)-6a,7,9,10-tetrahydro-[1,4]oxazino[3,4-h]pteridin-5(6H)-yl)-4,4-dimethylpentan-3-amine] |
| 251 | Cc1nc(-c2cccc3[nH]ccc23)nc2c1N(Cc1ccc(S(C)(=O)=O)cc1)CC1COCCN21 (centres unmarked) [Example 26, 2-(1H-indol-4-yl)-4-methyl-5-(4-(methylsulfonyl)benzyl)-5,6,6a,7,9,10-hexahydro-[1,4]oxazino[3,4-h]pteridine] |
| 10 | CS(=O)(=O)c1ccc(CN2C(=O)C3COCCN3c3nc(-c4cnc(N)nc4)ncc32)cc1 (centres unmarked) [Example 125, 2-(2-aminopyrimidin-5-yl)-5-(4-(methylsulfonyl)benzyl)-6a,7,9,10-tetrahydro-[1,4]oxazino[3,4-h]pteridin-6(5H)-one] |
| 12.6 | c1csc(-c2nnc(CN3CC4COCCN4c4nc(-c5cccc6[nH]ccc56)ncc43)o2)c1 (centres unmarked) [Example 33, 2-(1H-indol-4-yl)-5-((5-(thiophen-2-yl)-1,3,4-oxadiazol-2-yl)methyl)-5,6,6a,7,9,10-hexahydro-[1,4]oxazino[3,4-h]pteridine] |
| 251 | O=C(CN1C[C@@H]2COCCN2c2nc(-c3cccc4[nH]ccc34)ncc21)NC1CC1 [Example 207, (R)-2-(2-(1H-indol-4-yl)-6a,7,9,10-tetrahydro-[1,4]oxazino[3,4-h]pteridin-5(6H)-yl)-N-cyclopropylacetamide] |
| 398 | c1cc(-c2ncc3c(n2)N2CCOCC2CN3)c2cc[nH]c2n1 (centres unmarked) [Example 15, 2-(1H-pyrrolo[2,3-b]pyridin-4-yl)-5,6,6a,7,9,10-hexahydro-[1,4]oxazino[3,4-h]pteridine] |
| 10 | c1cc(-c2ncc3c(n2)N2CCOC[C@H]2CN3Cc2cnco2)c2cc[nH]c2c1 [Example 185, (R)-2-(1H-indol-4-yl)-5-(oxazol-5-ylmethyl)-5,6,6a,7,9,10-hexahydro-[1,4]oxazino[3,4-h]pteridine] |
| 25.1 | CS(=O)(=O)c1ccc(CN2C(=O)C3COCCN3c3nc(-c4ccnc5[nH]ccc45)ncc32)cc1 (centres unmarked) [Example 155, 5-(4-(methylsulfonyl)benzyl)-2-(1H-pyrrolo[2,3-b]pyridin-4-yl)-6a,7,9,10-tetrahydro-[1,4]oxazino[3,4-h]pteridin-6(5H)-one] |
| 631 | O=C1C2COCCN2c2nc(-c3cn[nH]c3)ncc2N1[C@H]1CCc2ccccc21 (stereo partly drawn) [Example 96, 5-((S)-2,3-dihydro-1H-inden-1-yl)-2-(1H-pyrazol-4-yl)-6a,7,9,10-tetrahydro-[1,4]oxazino[3,4-h]pteridin-6(5H)-one] |
| 39.8 | CNC(=O)Nc1ccc(-c2ncc3c(n2)N2CCOCC2CN3CC2CC2)cc1 (centres unmarked) [Example 64, 1-(4-(5-(cyclopropylmethyl)-5,6,6a,7,9,10-hexahydro-[1,4]oxazino[3,4-h]pteridin-2-yl)phenyl)-3-methylurea] |
| 15.8 | Cn1cc(CN2C[C@@H]3COCCN3c3nc(-c4cccc5[nH]ccc45)ncc32)cn1 [Example 182, (R)-2-(1H-indol-4-yl)-5-((1-methyl-1H-pyrazol-4-yl)methyl)-5,6,6a,7,9,10-hexahydro-[1,4]oxazino[3,4-h]pteridine] |
| 39.8 | Cc1nnc(CN2C(=O)C3COCCN3c3nc(-n4c(C(F)F)nc5ccccc54)ncc32)o1 (centres unmarked) [Example 157, 2-(2-(difluoromethyl)-1H-benzo[d]imidazol-1-yl)-5-((5-methyl-1,3,4-oxadiazol-2-yl)methyl)-6a,7,9,10-tetrahydro-[1,4]oxazino[3,4-h]pteridin-6(5H)-one] |

| IC50 [nM] | SMILES |
| --- | --- |
| 7940 | Oc1cc2c(-c3ncc4c(n3)N3CCOCC3CN4)cccc2[nH]1 (centres unmarked) [Example 12, 4-(5,6,6a,7,9,10-hexahydro-[1,4]oxazino[3,4-h]pteridin-2-yl)-1H-indol-2-ol] |
| 126 | O=C(CN1C[C@@H]2COCCN2c2nc(-c3cccc4[nH]ccc34)ncc21)NCc1cc[nH]n1 [Example 72, (R)-2-(2-(1H-indol-4-yl)-6a,7,9,10-tetrahydro-[1,4]oxazino[3,4-h]pteridin-5(6H)-yl)-N-((1H-pyrazol-3-yl)methyl)acetamide] |
| 15.8 | c1ccc(-n2cc(CN3CC4COCCN4c4nc(-c5cccc6[nH]ccc56)ncc43)nn2)cc1 (centres unmarked) [Example 40] |
| 1.26 | CS(=O)(=O)c1ccc(CN2C[C@@H]3COCCN3c3nc(-c4cncc5[nH]ccc45)ncc32)cc1 [Example 30, (R)-5-(4-(methylsulfonyl)benzyl)-2-(1H-pyrrolo[2,3-c]pyridin-4-yl)-5,6,6a,7,9,10-hexahydro-[1,4]oxazino[3,4-h]pteridine] |
| 794 | COC(=O)c1ccc(C)cc1CN1C[C@@H]2COCCN2c2nc(-c3cccc4[nH]ccc34)ncc21 [Example 165, (R)-methyl 2-((2-(1H-indol-4-yl)-6a,7,9,10-tetrahydro-[1,4]oxazino[3,4-h]pteridin-5(6H)-yl)methyl)-4-methylbenzoate] |
| 251 | N#Cc1ccccc1CN1CC2COCCN2c2nc(-c3cccc4[nH]ccc34)ncc21 (centres unmarked) [Example 45, 2-((2-(1H-indol-4-yl)-6a,7,9,10-tetrahydro-[1,4]oxazino[3,4-h]pteridin-5(6H)-yl)methyl)benzonitrile] |
| > 10000 | CCc1nnc(CN2C[C@@H]3COCCN3c3nc(-c4ccc(O)nc4)ncc32)o1 [Example 168, (R)-5-(5-((5-ethyl-1,3,4-oxadiazol-2-yl)methyl)-5,6,6a,7,9,10-hexahydro-[1,4]oxazino[3,4-h]pteridin-2-yl)pyridin-2-ol] |
| 50.1 | CC(C)(C)OC(=O)CN1C[C@@H]2COCCN2c2nc(-c3cccc4[nH]ccc34)ncc21 [Example 68, (R)-tert-butyl 2-(2-(1H-indol-4-yl)-6a,7,9,10-tetrahydro-[1,4]oxazino[3,4-h]pteridin-5(6H)-yl)acetate] |
| 6310 | CC(C)NS(=O)(=O)c1cccc(-c2ncc3c(n2)N2CCOCC2C(=O)N3Cc2ccc(S(C)(=O)=O)cc2)c1 (centres unmarked) [Example 98, N-isopropyl-3-(5-(4-(methylsulfonyl)benzyl)-6-oxo-5,6,6a,7,9,10-hexahydro-[1,4]oxazino[3,4-h]pteridin-2-yl)benzenesulfonamide] |
| 200 | O=C(Cc1cccs1)N1CC2COCCN2c2nc(-c3cccc4[nH]ccc34)ncc21 (centres unmarked) [Example 49, 1-(2-(1H-indol-4-yl)-6a,7,9,10-tetrahydro-[1,4]oxazino[3,4-h]pteridin-5(6H)-yl)-2-(thiophen-2-yl)ethanone] |
| 316 | COc1cccc(CC(=O)N2CC3COCCN3c3nc(-c4cccc5[nH]ccc45)ncc32)c1 (centres unmarked) [Example 50, 1-(2-(1H-indol-4-yl)-6a,7,9,10-tetrahydro-[1,4]oxazino[3,4-h]pteridin-5(6H)-yl)-2-(3-methoxyphenyl)ethanone] |
| 126 | CS(=O)(=O)c1ccc(CN2C(=O)C3COCCN3c3nc(-c4ccc5[nH]ccc5c4)ncc32)cc1 (centres unmarked) [Example 127, 2-(1H-indol-5-yl)-5-(4-(methylsulfonyl)benzyl)-6a,7,9,10-tetrahydro-[1,4]oxazino[3,4-h]pteridin-6(5H)-one] |
| 200 | O=C(CN1C[C@@H]2COCCN2c2nc(-c3cccc4[nH]ccc34)ncc21)NCC1CC1 [Example 70, (R)-2-(2-(1H-indol-4-yl)-6a,7,9,10-tetrahydro-[1,4]oxazino[3,4-h]pteridin-5(6H)-yl)-N-(cyclopropylmethyl)acetamide] |
| 5.01 | CS(=O)(=O)c1ccc(CN2C[C@@H]3COCCN3c3nc(-n4c(C(F)F)nc5ccccc54)ncc32)cc1 [Example 67, (R)-2-(2-(difluoromethyl)-1H-benzo[d]imidazol-1-yl)-5-(4-(methylsulfonyl)benzyl)-5,6,6a,7,9,10-hexahydro-[1,4]oxazino[3,4-h]pteridine] |
| 15.8 | c1cc(-c2ncc3c(n2)N2CCOCC2CN3Cc2nnc(C3CC3)o2)c2cc[nH]c2c1 (centres unmarked) [Example 81, 5-((5-cyclopropyl-1,3,4-oxadiazol-2-yl)methyl)-2-(1H-indol-4-yl)-5,6,6a,7,9,10-hexahydro-[1,4]oxazino[3,4-h]pteridine] |
